Test results reported in PMC9807592, “New thioxothiazolidinyl-acetamides derivatives as potent urease inhibitors: design, synthesis, in vitro inhibition, and molecular dynamic simulation” (Scientific Reports, 2023).
≈ marks a conversion by molar mass, not a printed value. Where two headings read alike, the source gives them in different places.

Legend:
[1] = system: clinical isolate of P. vulgaris; test: Antimicrobial activity, broth microdilution (CLSI); assay type: cell-based; conditions: Proteus vulgaris
Method: (§1) Then, 100 μL of each dilution was transferred into the well of a microtiter plate and inoculated with 100 μL of cell suspension with a final density of 1–5 × 10^3 CFU/ml for yeasts and 1–1.5 × 10^6 cells/ml for bacteria. Plates were incubated at proper temperature overnight, and the minimum inhibitory concentration (MIC) of compounds was determined as the lowest concentration that prevented visible growth of tested microorganisms compared with the growth in the control wells (wells without tested compounds). […] All experiments were performed in duplicate[30],[31].

S. aureus ATCC 25923 = test: Antimicrobial activity, broth microdilution (CLSI); assay type: cell-based; conditions: Staphylococcus aureus, ATCC25923
Method: as §1

E. coli ATCC 25922 = test: Antimicrobial activity, broth microdilution (CLSI); assay type: cell-based
Method: as §1

[2] = In vitro cytotoxic evaluation (MTT assay); assay type: cell-based; conditions: human, MOLT-4 cells
Method: MOLT-4 (human acute lymphoblastic leukemia) cells were cultures in RPMI-1640 medium supplemented with 10% heat-inactivated fetal bovine serum. Cell viability was measured by the MTT assay. MOLT-4 cells were seeded into 96-well micro-culture plates. After 24 h, the culture medium was replaced with a medium containing different concentrations of newly synthesized derivatives. Control wells were supplemented with the same volume of growth medium not containing any drugs. Cells were then incubated at 37 °C for 72 h. At the end of the exposure time, the medium was removed and MTT solution of 0.5 mg/ml was added to each well. The plates were incubated at 37 °C for 4 h, after which DMSO was added to each well to solubilize the formed formazan crystals, and the absorbance of each well was read with a microplate reader at 570 nm.

[3] = system: urease-positive clinical isolate of P. vulgaris; test: Urease inhibitory activity against P. vulgaris (Christensen's urea medium, 560 nm); assay type: cell-based; conditions: Proteus vulgaris; for IC50: 24 h at 37 °C, read at 560 nm
Method: To assess the inhibition of urease activity by synthetic compounds, Christensen’s urea.
medium containing urea and phenol red (pH indicator) was used for the preparation of two-fold serial dilutions of compounds in 96-well microtiter plates. Cell suspension of a urease-positive clinical isolate of P. vulgaris was prepared in a urea medium and added to each well. The turbidity of bacterial suspension was adjusted to 0.5 McFarland using a spectrophotometer, and also, the density of inoculated suspension was 1 × 10^6 CFU/ml. The concentrations of compounds were in the range of 1–512 µg/ml.
Inoculated media without adding any compound was considered a positive control, while uninoculated media were used as a negative control (blank). The anti-urease activity was assessed spectroscopically at 560 nm after 24 h incubation at 37 °C[14].

C. albicans ATCC 10261 = test: Antimicrobial activity, broth microdilution (CLSI); assay type: cell-based; conditions: Candida albicans, ATCC10261
Method: The antimicrobial activity of designed compounds was investigated using broth microdilution.
(§2) Briefly, twofold serial dilutions of the compounds were prepared in Mueller–Hinton Broth (MHB, HiMedia) for bacterial strains and RPMI-1640 (Sigma-Aldrich) for yeast strain (Ranging 1–512 µg/ml). Then, 100 μL of each dilution was transferred into the well of a microtiter plate and inoculated with 100 μL of cell suspension with a final density of 1–5 × 10^3 CFU/ml for yeasts and 1–1.5 × 10^6 cells/ml for bacteria. Plates were incubated at proper temperature overnight, and the minimum inhibitory concentration (MIC) of compounds was determined as the lowest concentration that prevented visible growth of tested microorganisms compared with the growth in the control wells (wells without tested compounds). Moreover, the minimum bactericidal/fungicidal concentration (MBC/MFC) of compounds was determined by transferring the 10 µl of clear wells into the agar media. Standard antibacterial and antifungal agents (Ciprofloxacin and Fluconazole) were evaluated. All experiments were performed in duplicate[30],[31].

urease [4] = molecular target: T1, urease (Canavalia ensiformis, UniProt P07374); test: biochemical; assay type: biochemical
Method: The assay was performed exactly according to our previous report. Briefly, 850 μL of urea and 15 μL urease (0.135 units dissolved in PBS, pH 7.4) were added to 100 μL of the synthesized derivatives at different concentrations. After 30 min, to 100 μL of the incubated solution, 500 μL solution I (5.0 g phenol and 25.0 mg sodium nitroprusside in 500 mL water) was added followed by the addition of 500 μL of solution II (2.5 g sodium hydroxide, 4.2 mL sodium hypochlorite, and 5% chlorine in 500 mL water) which was further incubated at 37 °C for 30 min. The absorbance was determined by measuring indophenols at 625 nm. Thiourea was used as the standard inhibitor for urease. The IC50 values for all synthesized compounds were calculated using GraphPad Prism software (GraphPad Software, Inc., San Diego, CA)[20].

urease [5] = conditions: read-out: IC50, urease inhibition, cited from earlier work
[6] = system: methicillin-resistant Staphylococcus aureus (MRSA) isolates; test: Antimicrobial activity against resistant isolates; assay type: cell-based
Method: Regarding the antibacterial activity of 6n and 6o against the standard strain of S. aureus, these derivatives were tested against methicillin-resistant Staphylococcus aureus (MRSA) isolates.
as §2

S. aureus biofilm = test: Inhibition of biofilm formation (crystal violet assay); assay type: cell-based; conditions: Staphylococcus aureus, read-out: inhibition in the development of biofilm by S. aureus
Method: To evaluate the ability of the synthesized compounds 6a-i to prevent biofilm formation by standard species of S. aureus (ATCC25923) and MRSA strain, biofilms were pre-formed in 96 well plates, as previously described. Firstly, bacterial strains were inoculated into Tryptic Soy Broth (TSB) medium. The cells were cultivated on a shaker overnight for 180 r/min at 37 °C. Then, the suspension was centrifuged, and the cells were washed with PBS three times. Diluted cell suspension of strains was added into the wells with 1 × 10^6 final concentration. The plates were incubated for 4 h at 37 °C. After that, 100 μl of each of the dissolved compounds was added to a final concentration of […] in the wells. The plates were further incubated for 24 h at 37 °C. Following incubation, the crystal violet assay was performed to evaluate the inhibition of biofilm formation. For this purpose, the supernatant of the wells was aspirated gently, and the wells were washed three times with sterile distilled water. […] Assessment of biofilm formation was performed by transferring 100 μl of the destaining solution to a new plate and measuring the absorbance at 590 nm using a microplate reader. […] The mean absorbance (OD590 nm) of the samples was determined, and percentage inhibition was obtained using Eq. (1) as follows: 1 Percentageinhibition:ODblank-ODtest×100/ODblank

urease [7] = molecular target: T1, urease; test: Enzyme kinetic study of urease inhibition (Lineweaver–Burk); assay type: biochemical
Method: A Lineweaver–Burk plot was generated to identify the type of inhibition, and the Michaelis–Menten constant (Km) value was determined from the plot between the reciprocal of the substrate concentration (1/[S]) and reciprocal of enzyme rate (1/V) over various inhibitor concentrations. The experimental inhibitor constant (Ki) value was constructed by secondary plots of the inhibitor concentration [I] versus Km.

[8] = Escherichia coli, ATCC25922, read-out: MIC

T1 sequence (P07374 whole entry, looked up): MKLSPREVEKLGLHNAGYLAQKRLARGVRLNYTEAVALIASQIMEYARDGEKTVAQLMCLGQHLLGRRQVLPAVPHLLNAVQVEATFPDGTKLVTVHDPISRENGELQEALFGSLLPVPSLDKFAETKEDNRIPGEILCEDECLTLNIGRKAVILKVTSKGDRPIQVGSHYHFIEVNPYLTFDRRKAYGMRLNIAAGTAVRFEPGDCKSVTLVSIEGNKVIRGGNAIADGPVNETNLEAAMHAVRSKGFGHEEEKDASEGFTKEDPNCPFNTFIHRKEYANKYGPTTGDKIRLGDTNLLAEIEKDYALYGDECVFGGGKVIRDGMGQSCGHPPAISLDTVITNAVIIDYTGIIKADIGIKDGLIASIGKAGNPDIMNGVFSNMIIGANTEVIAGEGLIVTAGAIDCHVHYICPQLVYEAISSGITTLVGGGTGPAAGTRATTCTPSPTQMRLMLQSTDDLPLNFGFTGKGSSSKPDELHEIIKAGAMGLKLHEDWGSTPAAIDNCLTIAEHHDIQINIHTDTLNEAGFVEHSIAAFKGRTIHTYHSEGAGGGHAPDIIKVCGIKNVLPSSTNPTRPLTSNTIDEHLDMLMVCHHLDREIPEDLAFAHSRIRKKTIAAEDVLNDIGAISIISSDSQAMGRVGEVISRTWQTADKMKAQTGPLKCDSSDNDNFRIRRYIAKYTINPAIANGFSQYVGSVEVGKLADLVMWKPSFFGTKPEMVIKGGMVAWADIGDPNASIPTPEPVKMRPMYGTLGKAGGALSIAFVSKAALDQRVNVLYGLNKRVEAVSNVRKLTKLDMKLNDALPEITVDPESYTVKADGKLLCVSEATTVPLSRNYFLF

Row | Compound | MIC [1] [µg/mL] | MIC (S. aureus ATCC 25923) [µg/mL] | MIC (E. coli ATCC 25922; [8]) [µg/mL] | melting point [°C] | viability at 72 h, 100 µM [2] [%] | IC50 [3] [µg/mL] | MIC (C. albicans ATCC 10261) [µg/mL] | IC50 (urease [4]) [nM] | inhibition at 512 µg/mL ([3]; at 512 µg/ml) [%] | IC50 (urease [5]; arylhydrazide Schiff base-thiazolidinones) [nM] | MBC (S. aureus ATCC 25923) [µg/mL] | MIC [6] [µg/mL] | inhibition at 512 µg/mL (S. aureus biofilm) [%] | IC50 (urease [5]; thiazolidine carboxylic acid lead) [nM] | Ki (urease [7]) [nM] | type of inhibition (urease [7]; Lineweaver–Burk plot, 6i at 0, 0.5, 1 and 2 µM) | MIC (E. coli ATCC 25922) [µg/mL] | MBC (E. coli ATCC 25922; Escherichia coli, ATCC25922) [µg/mL] | IC50 (urease [5]; 4-thiazolidinone analogs) [nM]
1 | CC(C)CNC(=O)CC1SC(=S)N(Cc2ccccc2)C1=O (stereo not drawn) [Compound 6f, 2-(3-benzyl-4-oxo-2-thioxothiazolidin-5-yl)-N-isobutylacetamide] | > 512 | > 512 | > 512 | 164 to 166 | 91.9 ± 1.3 | 32.4 ± 5.26 (≈ 96.2 µM) | > 512 | 1590 ± 470 |  |  |  |  |  |  |  |  |  |  | 
2 | O=C(CC1SC(=S)N(Cc2ccccc2)C1=O)NC1CCCC1 (stereo not drawn) [Compound 6h, 2-(3-benzyl-4-oxo-2-thioxothiazolidin-5-yl)-N-cyclopentylacetamide] | > 512 | > 512 | > 512 | 167 to 169 | 95 ± 4.2 | ≥ 512 | > 512 | 1860 ± 290 | 48.5 |  |  |  |  |  |  |  |  |  | 
3 | N#Cc1ccc(C(=O)NN2C(=O)CSC2c2ccccc2O)cc1 (stereo not drawn) [D] |  |  |  |  |  |  |  |  |  | 4100 ± 20 |  |  |  |  |  |  |  |  | 
4 | CCCNC(=O)CC1SC(=S)N(CC(C)C)C1=O (stereo not drawn) [Compound 6n, 2-(3-isobutyl-4-oxo-2-thioxothiazolidin-5-yl)-N-propylacetamide] | > 512 | 128 (≈ 444 µM) | > 512 | 160 to 162 | 96.4 ± 2.2 |  | > 512 | 2380 ± 490 |  |  | > 512 | 128 (≈ 444 µM) | 37 |  |  |  |  |  | 
5 | CCCCNC(=O)CC1SC(=S)N(Cc2ccccc2)C1=O (stereo not drawn) [Compound 6e, 2-(3-benzyl-4-oxo-2-thioxothiazolidin-5-yl)-N-butylacetamide] | > 512 | > 512 | > 512 | 166 to 168 | 91.7 ± 2.8 | 15.3 ± 2.4 (≈ 45.4 µM) | > 512 | 1640 ± 450 |  |  |  |  |  |  |  |  |  |  | 
6 | O=C(O)[C@@H]1CSCN1 [A] |  |  |  |  |  |  |  |  |  |  |  |  |  | 3030 ± 98 |  |  |  |  | 
7 | CCCCN1C(=O)[C@@H](CC(=O)NCc2ccccc2)SC1=S (racemic) [Compound 6i, N-benzyl-2-(3-butyl-4-oxo-2-thioxothiazolidin-5-yl)acetamide] | > 512 | > 512 | > 512 | 172 to 174 | 97.8 ± 2.5 | 17.8 ± 3.75 (≈ 52.8 µM) | > 512 | 1470 ± 110 |  |  |  |  |  |  | 1170 | competitive |  |  | 
8 | C=CCNC(=O)CC1SC(=S)N(CC(C)C)C1=O (stereo not drawn) [Compound 6o, N-allyl-2-(3-isobutyl-4-oxo-2-thioxothiazolidin-5-yl)acetamide] | > 512 | 128 (≈ 447 µM) | 512 (≈ 1790 µM) | 164 to 166 | 97.3 ± 3.5 |  | > 512 | 9270 ± 1650 |  |  | 256 (≈ 894 µM) | 512 (≈ 1790 µM) | 27 |  |  |  | 512 (≈ 1790 µM) | > 512 | 
9 | COc1cc(/C=N\N=C2\NC(=O)CS2)c(OC)cc1Br [C] |  |  |  |  |  |  |  |  |  |  |  |  |  |  |  |  |  |  | 1730 ± 1000
